Measured values as given in patent US20080070990A1, “USE OF RACTOPAMINE ENANTIOMERS” (STIRLING PRODUCTS LIMITED, priority 2006, published 2008).
Structures can show the parent of a compound that is named as a salt.

Columns and labels:
livestock animals = assay: Stress in livestock animals (applicant's findings); details: in vivo
animals = assay: Cardiovascular parameters in animals; assay type: in vivo; details: concentrations corresponding to doses suitable for growth promotion
mice [1] = assay: Spontaneous motor activity studies in mice; assay type: in vivo; details: oral
mice [2] = assay: Stress testing in mice, methodology of Aberg (U.S. Pat. No. 6,372,799); assay type: in vivo; details: preliminary results
rats [3] = details: cited from earlier work
rats [4] = assay: Neuropharmacological study in rats (Irwin test); assay type: in vivo; details: for drug-related stress, Irwin test: rats, oral
[5] = target: adrenergic B3 (h) receptor (Homo sapiens, UniProt P13945); assay: Affinity (Ki) for adrenergic β-receptors, β3; assay type: binding
Chain of adrenergic B3 (h) receptor (P13945 whole entry): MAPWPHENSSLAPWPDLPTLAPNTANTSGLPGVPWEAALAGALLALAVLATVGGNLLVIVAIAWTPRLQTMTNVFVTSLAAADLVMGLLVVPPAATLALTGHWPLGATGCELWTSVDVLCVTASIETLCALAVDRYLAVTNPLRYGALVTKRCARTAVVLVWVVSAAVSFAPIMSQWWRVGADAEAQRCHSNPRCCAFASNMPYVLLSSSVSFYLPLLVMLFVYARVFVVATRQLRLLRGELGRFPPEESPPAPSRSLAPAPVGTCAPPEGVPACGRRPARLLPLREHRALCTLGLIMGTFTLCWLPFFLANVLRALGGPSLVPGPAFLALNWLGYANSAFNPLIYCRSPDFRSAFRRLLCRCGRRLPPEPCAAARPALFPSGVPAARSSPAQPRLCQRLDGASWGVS

pigs = details: literature; cited from earlier work
[6] = target: adrenergic β1(h) receptor (Homo sapiens, UniProt P08588); assay: Affinity (Ki) for adrenergic β-receptors, β1; assay type: binding
Chain of adrenergic β1(h) receptor (P08588 whole entry): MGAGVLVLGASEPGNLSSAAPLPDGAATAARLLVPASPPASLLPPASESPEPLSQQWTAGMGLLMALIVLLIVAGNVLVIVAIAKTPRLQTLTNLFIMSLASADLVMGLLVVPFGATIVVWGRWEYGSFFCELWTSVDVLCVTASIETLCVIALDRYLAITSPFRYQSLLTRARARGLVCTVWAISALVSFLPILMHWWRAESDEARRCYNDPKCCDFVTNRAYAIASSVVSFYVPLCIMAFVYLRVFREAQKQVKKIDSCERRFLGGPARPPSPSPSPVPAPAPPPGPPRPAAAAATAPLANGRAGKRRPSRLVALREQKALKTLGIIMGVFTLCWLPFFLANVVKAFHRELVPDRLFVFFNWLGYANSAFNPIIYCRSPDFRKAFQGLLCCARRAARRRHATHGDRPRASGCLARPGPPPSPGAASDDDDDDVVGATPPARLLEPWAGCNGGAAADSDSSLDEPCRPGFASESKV

[7] = test system: adrenergic beta-receptors in adipose tissue; details: animals exposed to racemic ractopamine; cited from earlier work
obese animals = assay: Weight loss in obese animals; details: in vivo
adrenergic beta-receptor = details: cited from earlier work

Structure (SMILES)	drug-related stress, spontaneous motor activity (mice [1])	drug-related stress, Irwin test (rats [4])	affinity for beta-3 receptors (in words) [5]	stress in pigs / livestock animals (pigs)	adrenergic beta-receptor stimulating activity (adrenergic beta-receptor)	further results
C[C@H](CCc1ccc(O)cc1)NC[C@H](O)c1ccc(O)cc1.Cl (racemic) [RR-ractopamine, RR 4-Hydroxy-a [[[3-(4-hydroxyphenyl)-1-methylpropyl]amino]methyl]benzenemethanol hydrochloride]	no signs of drug-related stress	do not show signs of drug-related stress	–	–	–	stress as side effect in livestock animals (livestock animals): does not cause this side effect in livestock animals; effects on cardiovascular parameters (animals): failed to reveal detrimental effects on cardiovascular parameters; CNS-mediated stress, stress testing in mice (mice [2]): not causing stress; potency rank among the four stereoisomers in vivo (rats [3]): most potent
CC(CCc1ccc(O)cc1)NCC(O)c1ccc(O)cc1 (racemic) [Ractopamine, 4-hydroxy-a-[[[3-(4-hydroxyphenyl)-1-methylpropyl]amino]methyl]benzenemethanol hydrochloride]	drug-related and CNS-mediated (“psychological”) stress	demonstrate stress	negligible affinity for beta-3 receptors	cause stress in livestock animals	–	Ki [5]: 14 µM; Ki [6]: 0.26 µM; reduction of concentration of adrenergic beta-receptors in adipose tissue [7]: 50%; weight loss in obese animals (obese animals): cause weight loss in obese animals
CC(CCc1ccc(O)cc1)NCC(O)c1ccc(O)cc1 (single isomer, unassigned) [RS-enantiomer]	–	–	–	–	reduced beta-receptor activity when compared with RR-ractopamine	–
C[C@H](CCc1ccc(O)cc1)NC[C@@H](O)c1ccc(O)cc1 (single isomer, unassigned) [SR-enantiomer]	–	–	–	–	reduced beta-receptor activity when compared with RR-ractopamine	–
C[C@@H](CCc1ccc(O)cc1)NC[C@@H](O)c1ccc(O)cc1 (single isomer, unassigned) [SS-enantiomer]	–	–	–	–	completely devoid of adrenergic beta-receptor stimulating activity	–
CC(C)(C)NC[C@H](O)c1ccc(O)c(CO)c1 [R-salbutamol]	–	–	negligible affinity for beta-3 receptors	does not induce stress in pigs	–	CNS-effects related to stress in laboratory animals (rats [4]; laboratory animals): not causing CNS-effects related to stress in laboratory animals
